In ChEMBL document CHEMBL5303573, “Mapping human microbiome drug metabolism by gut bacteria and their genes” (Nature, 2019):

Experiments:
[1] = The drug is tested on Coprococcus comes strain: ATCC27758 for biotransformation. The drug concentrations were measured before and after a 12-h incubation by liquid-chromatography-coupled mass spectrometry (LC–MS); assay type: ADME; set-up: dose 2 uM, timepoint 0 vs 12 hours; details: 2 µM
[2] = The drug is tested on Odoribacter splanchnicus strain: fecal isolate for biotransformation. The drug concentrations were measured before and after a 12-h incubation by liquid-chromatography-coupled mass spectrometry (LC–MS); details: 2 µM
[3] = The drug is tested on Providencia stuartii strain: ATCC25827 for biotransformation. The drug concentrations were measured before and after a 12-h incubation by liquid-chromatography-coupled mass spectrometry (LC–MS); details: 2 µM
[4] = The drug is tested on Clostridium sporogenes strain: ATCC15579 for biotransformation. The drug concentrations were measured before and after a 12-h incubation by liquid-chromatography-coupled mass spectrometry (LC–MS); details: 2 µM
[5] = The drug is tested on Parabacteroides merdae strain: ATCC43184 for biotransformation. The drug concentrations were measured before and after a 12-h incubation by liquid-chromatography-coupled mass spectrometry (LC–MS); details: 2 µM
[6] = The drug is tested on Bacteroides fragilis strain: HMW615 for biotransformation. The drug concentrations were measured before and after a 12-h incubation by liquid-chromatography-coupled mass spectrometry (LC–MS); details: 2 µM
[7] = The drug is tested on Clostridium sp. strain: fecal isolate for biotransformation. The drug concentrations were measured before and after a 12-h incubation by liquid-chromatography-coupled mass spectrometry (LC–MS); details: 2 µM
[8] = The drug is tested on Clostridium asparagiforme strain: DSM15981 for biotransformation. The drug concentrations were measured before and after a 12-h incubation by liquid-chromatography-coupled mass spectrometry (LC–MS); assay type: ADME; set-up: dose 2 uM, timepoint 0 vs 12 hours; details: enterocloster asparagiformis, 2 µM
[9] = The drug is tested on Eubacterium hallii strain: DSM3353 for biotransformation. The drug concentrations were measured before and after a 12-h incubation by liquid-chromatography-coupled mass spectrometry (LC–MS); details: anaerobutyricum hallii, 2 µM
[10] = The drug is tested on Anaerococcus hydrogenalis strain: DSM7454 for biotransformation. The drug concentrations were measured before and after a 12-h incubation by liquid-chromatography-coupled mass spectrometry (LC–MS); details: 2 µM
[11] = parabacteroides distasonis, 12 h, 2 µM
Description: The drug is tested on Parabacteroides distasonis strain: ATCC8503 for biotransformation. The drug concentrations were measured before and after a 12-h incubation by liquid-chromatography-coupled mass spectrometry (LC–MS)

[12] = The drug is tested on Enterobacter cancerogenus strain: ATCC35316 for biotransformation. The drug concentrations were measured before and after a 12-h incubation by liquid-chromatography-coupled mass spectrometry (LC–MS); details: 2 µM
[13] = limosilactobacillus reuteri cf48-3a, 12 h, 2 µM
Description: The drug is tested on Lactobacillus reuteri CF48-3A strain: BEI HM-102 for biotransformation. The drug concentrations were measured before and after a 12-h incubation by liquid-chromatography-coupled mass spectrometry (LC–MS)

[14] = The drug is tested on Ruminococcus gnavus strain: ATCC29149 for biotransformation. The drug concentrations were measured before and after a 12-h incubation by liquid-chromatography-coupled mass spectrometry (LC–MS); details: mediterraneibacter gnavus, 2 µM
[15] = The drug is tested on Collinsella aerofaciens strain: ATCC25986 for biotransformation. The drug concentrations were measured before and after a 12-h incubation by liquid-chromatography-coupled mass spectrometry (LC–MS); details: 2 µM
[16] = enterocloster bolteae, 12 h, 2 µM
Description: The drug is tested on Clostridium bolteae strain: ATCCBAA-613 for biotransformation. The drug concentrations were measured before and after a 12-h incubation by liquid-chromatography-coupled mass spectrometry (LC–MS)

[17] = bacteroides fragilis, 12 h, 2 µM
Description: The drug is tested on Bacteroides fragilis strain: NCTC 9343 for biotransformation. The drug concentrations were measured before and after a 12-h incubation by liquid-chromatography-coupled mass spectrometry (LC–MS)

[18] = segatella copri, 12 h, 2 µM
Description: The drug is tested on Prevotella copri strain: DSM18205 for biotransformation. The drug concentrations were measured before and after a 12-h incubation by liquid-chromatography-coupled mass spectrometry (LC–MS)

[19] = The drug is tested on Enterococcus faecalis strain: V583 for biotransformation. The drug concentrations were measured before and after a 12-h incubation by liquid-chromatography-coupled mass spectrometry (LC–MS); details: 2 µM
[20] = The drug is tested on Clostridium scindens strain: ATCC35704 for biotransformation. The drug concentrations were measured before and after a 12-h incubation by liquid-chromatography-coupled mass spectrometry (LC–MS); details: 2 µM

Row | Compound | Bacterial Biotransformation [1] | Bacterial Biotransformation [2] | Bacterial Biotransformation [3] | Bacterial Biotransformation [4] | Bacterial Biotransformation [5] | Bacterial Biotransformation [6] | Bacterial Biotransformation [7] | Bacterial Biotransformation [8] | Bacterial Biotransformation [9] | Bacterial Biotransformation [10] | Bacterial Biotransformation [11] | Bacterial Biotransformation [12] | Bacterial Biotransformation [13] | Bacterial Biotransformation [14] | Bacterial Biotransformation [15] | Bacterial Biotransformation [16] | Bacterial Biotransformation [17] | Bacterial Biotransformation [18] | Bacterial Biotransformation [19] | Bacterial Biotransformation [20]
1 | CC(CN(C)C)CN1c2ccccc2CCc2ccccc21.O=C(O)/C=C\C(=O)O (stereo not drawn) [TRIMIPRAMINE MALEATE] | Compound NOT metabolized | Compound NOT metabolized | Compound NOT metabolized | Compound NOT metabolized | Compound NOT metabolized | Compound NOT metabolized | Compound NOT metabolized | Compound NOT metabolized | Compound NOT metabolized | Compound NOT metabolized | Compound NOT metabolized | Compound NOT metabolized | Compound NOT metabolized | Compound NOT metabolized | Compound NOT metabolized | Compound NOT metabolized | – | – | – | –
2 | O=c1[nH]c2ccccc2n1C1CCN(CCCC(c2ccc(F)cc2)c2ccc(F)cc2)CC1 [PIMOZIDE] | Compound NOT metabolized | Compound NOT metabolized | Compound NOT metabolized | Compound NOT metabolized | Compound NOT metabolized | Compound NOT metabolized | Compound NOT metabolized | Compound NOT metabolized | Compound NOT metabolized | Compound NOT metabolized | Compound metabolized | Compound NOT metabolized | Compound NOT metabolized | Compound NOT metabolized | Compound NOT metabolized | Compound NOT metabolized | Compound NOT metabolized | Compound NOT metabolized | Compound NOT metabolized | –
3 | COc1ccc(C(CN(C)C)C2(O)CCCCC2)cc1 (stereo not drawn) [VENLAFAXINE] | – | Compound NOT metabolized | Compound NOT metabolized | Compound NOT metabolized | Compound NOT metabolized | Compound NOT metabolized | Compound NOT metabolized | Compound NOT metabolized | Compound NOT metabolized | Compound NOT metabolized | Compound NOT metabolized | Compound NOT metabolized | Compound NOT metabolized | Compound NOT metabolized | Compound NOT metabolized | Compound NOT metabolized | Compound NOT metabolized | Compound NOT metabolized | Compound NOT metabolized | Compound NOT metabolized
4 | CCc1cccc2c3c([nH]c12)C(CC)(CC(=O)O)OCC3 (stereo not drawn) [ETODOLAC] | Compound NOT metabolized | Compound metabolized | Compound NOT metabolized | Compound NOT metabolized | Compound NOT metabolized | Compound metabolized | Compound NOT metabolized | Compound NOT metabolized | Compound NOT metabolized | Compound NOT metabolized | Compound NOT metabolized | Compound NOT metabolized | Compound NOT metabolized | Compound NOT metabolized | Compound NOT metabolized | Compound NOT metabolized | – | Compound NOT metabolized | Compound NOT metabolized | Compound NOT metabolized
5 | Cc1nc(-c2ccc(OCC(C)C)c(C#N)c2)sc1C(=O)O [FEBUXOSTAT] | Compound NOT metabolized | Compound metabolized | Compound NOT metabolized | Compound NOT metabolized | Compound NOT metabolized | Compound NOT metabolized | Compound NOT metabolized | Compound NOT metabolized | Compound NOT metabolized | Compound NOT metabolized | Compound NOT metabolized | Compound NOT metabolized | Compound NOT metabolized | Compound NOT metabolized | Compound NOT metabolized | Compound NOT metabolized | Compound NOT metabolized | – | Compound NOT metabolized | Compound NOT metabolized
6 | CC(O)(CS(=O)(=O)c1ccc(F)cc1)C(=O)Nc1ccc(C#N)c(C(F)(F)F)c1 (stereo not drawn) [BICALUTAMIDE] | Compound NOT metabolized | Compound metabolized | Compound NOT metabolized | Compound NOT metabolized | Compound NOT metabolized | Compound metabolized | Compound NOT metabolized | Compound NOT metabolized | Compound NOT metabolized | Compound NOT metabolized | Compound metabolized | Compound metabolized | Compound NOT metabolized | Compound NOT metabolized | Compound NOT metabolized | Compound NOT metabolized | – | Compound NOT metabolized | Compound NOT metabolized | Compound NOT metabolized
7 | CCN(C)C(=O)Oc1cccc([C@H](C)N(C)C)c1.O=C(O)C(O)C(O)C(=O)O [RIVASTIGMINE TARTRATE] | Compound NOT metabolized | Compound NOT metabolized | Compound NOT metabolized | Compound NOT metabolized | Compound NOT metabolized | Compound NOT metabolized | Compound NOT metabolized | Compound NOT metabolized | Compound NOT metabolized | Compound NOT metabolized | Compound NOT metabolized | Compound NOT metabolized | Compound NOT metabolized | Compound NOT metabolized | Compound NOT metabolized | – | – | Compound NOT metabolized | Compound NOT metabolized | Compound NOT metabolized
8 | COc1cc2nc(N3CCN(C(=O)C4CCCO4)CC3)nc(N)c2cc1OC (stereo not drawn) [TERAZOSIN] | Compound NOT metabolized | Compound NOT metabolized | Compound NOT metabolized | Compound NOT metabolized | Compound NOT metabolized | Compound NOT metabolized | Compound NOT metabolized | Compound NOT metabolized | Compound NOT metabolized | Compound NOT metabolized | Compound NOT metabolized | Compound NOT metabolized | Compound NOT metabolized | Compound NOT metabolized | Compound NOT metabolized | Compound NOT metabolized | Compound NOT metabolized | Compound NOT metabolized | Compound NOT metabolized | –
